Starred links: 1 amine or outer side, 2 acyl side, 3 side chain; linkers in the order of their positions; H or OH if unused. Positions of bridges follow the written chain, without caps; N, C: chain ends. No end group written: not given here. *: point of attachment. TBMB = c1c(C[*:1])cc(C[*:3])cc1C[*:2]; Myristyl = CCCCCCCCCCCCCC*
Columns and labels:
[1] = system: CSC; test: CSC inhibition (Table 10 summary); assay type: cell-based; conditions: linear peptide derivatives; change stated relative to prototype PDL1-L1
[2] = system: cancer cell proliferation; test: Cancer cell proliferation (Table 12 summary); assay type: cell-based
Method: (§1) MDA-MB-231 cells were seeded at 4×10^3 cells/well into a 96-well flat bottom tissue culture plate in a final volume of 100 ul and left to adhere for 24 hours at 37° C. and 5% CO2. Cells were then treated with inhibitors for 72 hours at a final concentration of 200, 100, 50, 25, 12.5 or 6.25 μM. Following inhibition, media was removed and replaced with 100 μL/well of WST-1 cell proliferation reagent (Sigma-Aldrich, Cat# 11644807001) at 1:10 final dilution. Absorbance was recorded at 450 nm at 1, 2, 3, and 4 hour incubation periods using a microplate spectrophotometer (with 30 sec mix time). Data represent a single independent experiment performed in triplicate, results are graphed as mean +/− standard error (SE).
(§2) 4T1, CT26 or MDA-MB-231 cancer cell lines were treated with DL-2 or DL-2-D bicyclic inhibitors for 72 hours. Following inhibition, media was removed and replaced with WST-1 cell proliferation reagent. Absorbance was recorded at 450 nm after 1 hour. Data represent a single independent experiment performed in triplicate; results are graphed as mean +/− standard error (SE).

[3] = system: metastatic initiating cells (MICs); test: Flow cytometry for alanine walk (MIC inhibition); assay type: cell-based; conditions: alanine walk peptide inhibitors, FACS MIC signature
Method: FACS (Fluorescence-activated cell sorting) was performed on single-cell suspensions treated with a suite of alanine walk peptide inhibitors. Cells were stained an array of antibodies to target the metastatic initiating cell (MIC) signature including CD44, CD24, SNAIL, ABCB5, CSV and Hoechst dye to monitor cell viability. The FACS gating strategy used is adopted and modified from our signature for metastatic initiating cells (MICs), which sorted cells based on the MIC, therapeutic resistant phenotype, shown to be associated with metastatic and aggressive cancer cells. A flow cytometry gating strategy was always included in the analysis to exclude dead cells ([…]). Flow cytometry acquisition was performed on single cell suspensions using BLSR II. Analysis was performed using FlowJo software.

[4] = system: MDA-MB-231-Br cells; test: WST-1 cell proliferation assay, MDA-MB-231-Br; assay type: cell-based, human; conditions: WST-1
[5] = system: MDA-MB-231 cells; test: WST-1 cell proliferation assay, MDA-MB-231; assay type: cell-based, human; conditions: MDA-MB-231, WST-1, 72 hours
Method: as §1
(§3) (A) CT26, 4T1 or MDA-MB-231 Cells were treated with inhibitors for 72 hours. Following inhibition, media was removed and replaced with WST-1 cell proliferation reagent. Absorbance was recorded at 450 nm after 1 hour. Data represent a single independent experiment performed in triplicate. Results are graphed as mean +/− standard error (SE). B) MDA-MB-231 or CT26 cancer cells were treated with vehicle control, DL-2-Batch 1 (original stock), DL-2-Batch 2 (current stock), DL-2-TBAB or linear PDL1. Cells were permeabilised and were probed with the DUOLINK ligation assay. Cover slips were mounted on glass microscope slides with ProLong nucblue glass Antifade reagent (Life Technologies). PDL1Ac and IMPα1 DUOLINK Digital images were analysed using ImageJ software (ImageJ, NIH, Bethesda, MD, USA) and graphs represent the mean DOT Fluorescent Intensity in the nucleus or the cytoplasm compartments with significant differences calculated as per one-way ANOVA comparison. (C) MDA-MB-231 or CT26 cancer cells were treated with vehicle control, DL-2-Batch 1 (Original stock), DL-2-Batch 2 (current stock), DL-2-TBAB or linear PDL1. Cells were permeabilised and were probed with the DUOLINK ligation assay. Cover slips were mounted on glass microscope slides with ProLong nucblue glass Antifade reagent (Life Technologies). PDL1-unmodified and IMPα1 DUOLINK digital images were analysed using ImageJ software (ImageJ, NIH, Bethesda, MD, USA) and graphs represent the mean DOT fluorescent intensity in the nucleus or the cytoplasm compartments with significant differences calculated as per one-way ANOVA comparison.
as §2
Cells weretreated with inhibitors for 48 hours. Following inhibition, media was removed and replaced with WST-1 cell proliferation reagent. Absorbance was recorded at 450 nm after 1 hour.

[6] = system: PDL1-PTM1, CSV and ALDH1A1 in 4T1 cells; test: Imaging of PDL1-PTM1, CSV and ALDH1A1 after cyclic PDL1 peptide; assay type: cell-based; conditions: 4T1 breast cancer cell line (Table 11 comment)
Method: Breast cancer cell line, 4T1, was treated with vehicle control or cyclic PDL1 peptide (cyclic PDL1) at a concentration of 50 μM. Cells were permeabilised and were probed with primary antibodies against PDL1-PTM1, CSV and ALDH1A1. Cover slips were mounted on glass microscope slides with ProLong nucblue glass Antifade reagent (Life Technologies). PDL1-PTM1, CSV and ALDH1A1 digital images were analysed using ImageJ software (ImageJ, NIH, Bethesda, MD, USA). Graphs represent the mean fluorescent intensity in the nucleus or the cytoplasm compartments with significant differences calculated as per Mann-Whitney analysis or the ratio of nuclear to cytoplasmic staining for PDL1-PTM1 which was calculated using the formula F(n−b)/(c−b) wherein n=nuclear staining, b=background, c=cytoplasmic. A ratio of 1 or high indicates nuclear bias, under 1 indicates cytoplasmic bias.

[7] = Rat plasma stability assay; assay type: in vitro ADME; conditions: 37° C., up to 24 hours
Method: The stability assay was performed as per CRO's protocol (Creative Peptides). In brief, peptide stability assays were carried out using a rat plasma model with the following steps: • 3.6 mL of human plasma and rat plasma were thawed at room temperature and centrifuged at 3000 rpm for 15 min. Remove the precipitate. • Prepare 20 mL termination solution ([…]) and precool at 4° C. • Prepare the following solution:
• Incubate the tube at 37° C. Take out 200 μL plasma sample at desired time points up to 24 hours respectively (e.g., at 0, 15, 30, 60, 120 mins, etc). Add 400 μL pre-cooled stop solution, centrifuge at 3000 rpm, 4° C. for 15 min, and carefully aspirate the supernatant. • The supernatant samples were filtered with a 0.22 μm filter membrane, and then analysed by LC-MS in order to determine the percentage of the test compound remaining.
The stability assay was performed using the same protocol as described above in Example 7.

[8] = system: CD8+ TIM3+ T cells; test: FACS of CD8+ TIM3+ T cells from 4T1 tumour mouse model; assay type: in vivo; conditions: 4T1 TNBC tumour mouse model
Source text: FIG. 32 provides graphical representations showing a comparison between DL-2 and DL-2-D. (A) As per FIGS. 24, and 25, above. (B) Fixed cells were washed with PBS and resuspended in PBS containing 1% BSA prior to antibody staining. Primary antibodies targeting CD8, TIM3 and PD1 antibodies were used. Appropriate antibody controls were used for all flow cytometry stain and acquisition. All samples were acquired on an LSR Fortessa cytometer (BD Biosciences, Franklin Lakes, NJ), and data were analyzed using FlowJo v10 software

[9] = system: 4T1 cells; test: WST-1 cell proliferation assay, 4T1; assay type: cell-based; conditions: 4T1, WST-1, 72 hours
Method: as §3, §2

[10] = system: CT26 cells; test: WST-1 cell proliferation assay, CT26; assay type: cell-based, mouse; conditions: CT26, WST-1, 72 hours
Method: as §3, §2

[11] = system: 4T1 TNBC metastatic cancer cells; test: 4T1 model of metastatic breast cancer in mice; assay type: in vivo, mouse
Method: 4T1 Gold standard immunotherapy resistant mouse model mice obtained from the ARC, Perth and mice were inoculated with 4T1 TNBC metastatic cancer cells. DL-2 is supplied lyophilised in glass vials and was reconstituted using sodium chloride injection BP (0.9% saline) to make a stock solution of 10 mg/mL using a needle/syringe, DL-2 was mixed by inversion. Animals were then injected by intraperitoneal injection at 10, 20 or 30 mg/kg daily and rested over the weekend. Mice were monitored over time for body weight and tumour volume.
4T1 Gold standard immunotherapy resistant mouse model mice obtained from the ARC, Perth and mice were inoculated with 4T1 TNBC metastatic cancer cells. DL-2 or DL-2-D is supplied lyophilised in glass vials was reconstituted using sodium chloride injection BP (0.9% saline) to make a stock solution of 10 mg/mL using a needle/syringe, DL-2 was mixed by inversion. Animals were then injected by intraperitoneal injection and mice were monitored over time for body weight and tumour volume for DL-2 at 20 mg/kg every second day with resting over the weekend in conjunction with αPD1 or isotype control (10 mg/kg).
DL-2-D was mixed by inversion. Animals were then injected by intraperitoneal injection and mice were monitored over time for body weight and tumour volume for DL-2-D at a concentration of 20 mg/kg every two days (identical regime to αPD1) in conjunction with αPD1 or isotype control (10 mg/kg).

[12] = DL-2-D (20 mg/kg) and αPD1 (10 mg/kg) combination therapy, day 20

ACLTFIFCRLRKGRCMMDVKK [DL2-Linear, Myristyl- DL2 linear peptide]
Potency (CSC inhibition) [1]: No change

ACLTFIFRLRCKGRMCMDVGKK (Myristyl-ACLTFIFRLRCKGRMCMDVGKK; linker 2-11-16 via TBMB) [DL-3, bicyclic peptide, Myristyl- N-terminus, TBMB backbone]
inhibition of cancer cell proliferation ([2]; Table 12 comment): DL-3 displayed no

AFIFRLRKGRMMDVKK
% Inhibition (number of metastatic initiating cells) [3]: 80.13%

LTFICFRLRKGRMCMDVCGKK (Myristyl-LTFICFRLRKGRMCMDVCGKK; linker 5-14-18 via TBMB) [DL-1, bicyclic peptide, Myristyl- N-terminus, TBMB backbone]
inhibition of proliferation [4]: able to inhibit proliferation
inhibition of proliferation [5]: able to inhibit proliferation
fold less potent than DL-2 at inhibiting cancer cell proliferation [2]: DL-1 was 3-fold less

LTFIFRLRKGRMMDVKKAGGA (Myristyl-LTFIFRLRKGRMMDVKKAGGA; not fully specified) [PDL1-L1 C2, Myristyl- cyclic peptide derivative, 4 linker amino acids]
inhibition of mesenchymal cancer markers and nuclear PDL1-PTM1 [6]: Failed to inhibit

TAIFRLRKGRMMDVKK
% Inhibition (number of metastatic initiating cells) [3]: 74.35%

TFAFRLRKGRMMDVKK
% Inhibition (number of metastatic initiating cells) [3]: 30.2%

TFIARLRKGRMMDVKK
% Inhibition (number of metastatic initiating cells) [3]: 4.4%

TFIFALRKGRMMDVKK
% Inhibition (number of metastatic initiating cells) [3]: 71.67%

TFIFRARKGRMMDVKK
% Inhibition (number of metastatic initiating cells) [3]: 35.6%

TFIFRLAKGRMMDVKK
% Inhibition (number of metastatic initiating cells) [3]: 43.98%

TFIFRLRAGRMMDVKK
% Inhibition (number of metastatic initiating cells) [3]: 0%

TFIFRLRKARMMDVKK
% Inhibition (number of metastatic initiating cells) [3]: 41.38%

TFIFRLRKGAMMDVKK
% Inhibition (number of metastatic initiating cells) [3]: 62.69%

TFIFRLRKGRAMDVKK
% Inhibition (number of metastatic initiating cells) [3]: 74.35%

TFIFRLRKGRMADVKK
% Inhibition (number of metastatic initiating cells) [3]: 100%

TFIFRLRKGRMMAVKK
% Inhibition (number of metastatic initiating cells) [3]: 100%

TFIFRLRKGRMMDAKK
% Inhibition (number of metastatic initiating cells) [3]: 81.9%

TFIFRLRKGRMMDVAK
% Inhibition (number of metastatic initiating cells) [3]: 48.7%

TFIFRLRKGRMMDVKA
% Inhibition (number of metastatic initiating cells) [3]: 58.03%

acltfifcrirckGrcmmdvkk [DL-2-D]
stability in rat plasma (percentage of test compound remaining) [7]: significantly more stable
abrogating the TIM3+ immunotherapy-resistant signature in CD8+ T cells [8]: more potent than DL-2
inhibition of proliferation [9]: significantly inhibit the proliferation
inhibition of proliferation [10]: significantly inhibit the proliferation
lung metastasis [11, 12]: reduces
primary tumour burden [11, 12]: reduces
lung, liver or spleen weights ([11]; DL-2-D alone): does not alter
body weight ([11]; DL-2-D and anti-PD1 combination therapy): No change
tumour volume ([11]; DL-2-D as a monotherapy agent): significantly inhibits
lung, liver or spleen weights ([11]; DL-2-D in combination with anti-PD1): does not alter
body weight ([11]; DL-2-D monotherapy): No change
inhibition of proliferation [5]: significantly inhibit the proliferation

acltfifcrlrkGrcmmdvkk [DL2-D-Linear]
Potency (CSC inhibition) [1]: No change

kkvdmmcrGkrlrcfiftlca [DL2-D Ret Linear]
Potency (CSC inhibition) [1]: No change

From patent publication US20240117005A1, “NOVEL BICYCLIC PEPTIDES” (THE COUNCIL OF THE QUEENSLAND INSTITUTE OF MEDICAL RESEARCH, priority 2021, published 2024)
